Where a name gives a salt, the structure may show the parent alone. Read-outs that look alike come from different tables or passages of the source.
What was measured:
[1] = Acute toxicity, single intraperitoneal injection, probit analysis (LD50); type: in vivo, Mäusen; conditions: mice, i.p.
From the text: Ihre akute Toxizität wurde an Mäusen (einmalige intraperitoneale Injektion) nach der Methode der Probit-Analyse nach Zichtfield, Wilcoxon, t949 untersucht. In Tabelle 2 sind die Parameter der akuten Toxizität (LDso) angegeben, die eine mäßige Toxizität der erfindungsgemäßen Verbindungen belegen.

[2] = system: K -Durchlässigkeit der Membrane des Ranvier-Schnürringes; experiment: K+ permeability of the node of Ranvier membrane, voltage clamp; design: species or system Frosches; conditions: node of Ranvier, frog sciatic nerve fibres, voltage clamp; concentration giving 50 % block of ion permeability; read-out: Blockierung der K^+-Durchlässigkeit der Membrane Ic50 (Mol)
From the text: (§1) Untersucht wurden die Wirkmechanismen der erfindungsgemäßen Verbindungen: • 1. Die Wirkung auf Acetylcholinesterase menschlicher Erythrozyten auf spektrofotometrischem Wege. • 2. Die Wirkung auf die K - und Na -Durchlässigkeit der Membrane des Ranvier-Schnürringes (s. Fox T.M. et al. "Modification of ionic membrane currrents of Ranvier nodes by UV-radiation under voltage clamp conditions", Experientia, 27, 1289-1290 /1971/ und Arhom P. et al. "Local anesthetics: effects on permeability properties of nodal membrane in myelynated nerve fibres from xenopus". Acta physiol. Scand. 91, 11-21 /1974/) der Nervenfasern des Hüftnervs des Frosches unter Anwendung der Methode der Messung der Membranspannung (Voltage-clampmethode) (s. Derksen H.E. "Axon membrane voltage fluctuations", Acta Physiol., Pharmacol Neer, 13, 373-466 /1965/).
(§2) Alle erfindungsgemäßen Verbindungen sind Blocker für die K^+-Durchlässigkeit der Membrane analog dem Amyridin. Die Salze der bicyclischen Basen blockieren jedoch stärker die Na -Durchlässigkeit der Membrane, was sich mit ihren sedativen und analgetischen Eigenschaften in Verbindung bringen läßt.

Samenleiter der Ratte = experiment: Contractile activity of smooth muscle: rat vas deferens; conditions: Rattus norvegicus, Samenleiter der Ratte, n = 9, read-out: Adrenalin 1.10^-6: Amplitude, % bezogen auf d.Kontrolle; for activity at 10 µM: Konzentration 1.10^-5 Mol; for activity at 100 µM: Konzentration 1.10^-4 Mol
From the text: (§3) In Versuchen an glattmpskulären Organen (Uterus, Samenleiter der Ratte und Krummdarm des Meerschweinchens) wurden die Wirkung der erfindungsgemäßen Verbindungen auf die kontraktile Aktivität der glatten Muskeln und ihre Reaktionen auf den Einfluß von Acetylcholin, Serotonin, Adrenalin und KCI als Agonisten untersucht. Mit Hilfe eines Schreibers wurden die Amplitude und die Dauer der Kontraktion der glatten Muskeln unter Verwendung eines Geräts vom Typ Mechanstron-untersucht.

Uterus der Ratte = experiment: Contractile activity of smooth muscle: rat uterus; conditions: n = 9; for activity at 10 µM / activity at 100 µM: Rattus norvegicus; for activity at 100 µM: Konzentration 1.10^-4 Mol
From the text: as §3

[3] = system: Na -Durchlässigkeit der Membrane des Ranvier-Schnürringes; experiment: Na+ permeability of the node of Ranvier membrane, voltage clamp; design: species or system Frosches; conditions: node of Ranvier, frog sciatic nerve fibres, voltage clamp; concentration giving 50 % block of ion permeability; read-out: Blockierung der Na^+-Durchlässigkeit der Membrane Ic50 (Mol)
From the text: as §1, §2

[4] = system: durch Skopolamin hervorgerufene Amnesie; experiment: Dark avoidance assay (passive avoidance), scopolamine-induced amnesia; type: in vivo, Mäusen; conditions: for Einfluß auf das Gedächtnis: Zahl der Tiere in %, bei denen die Skopolaminwirkung aufgehoben wurde: mice, compound s.c. 5 min before learning, Skopolamin i.p. 30 min before; for antiamnestische Wirkung: in words, compared with Amyridin
[5] = system: Nerven-Muskel-Präparat von Mäusen (n.peroneus-m.extensor digitorum longus); experiment: Neuromuscular transmission in isolated nerve-muscle preparation (EPP, minEPP); conditions: for Stimulierung der Nerven-Muskelübertragung, in % der Amplitude: EPP: EPP = Endplattenpotential
Method in brief: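 Mouse peroneal nerve–extensor digitorum longus preparation, isolated and perfused with O2/CO2-gassed Lilly solution. EPPs and spontaneous minEPPs were recorded by magnetograph, then analysed by computer for frequency, amplitude and duration.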

[6] = Side effects and CNS/behaviour: tremor (TD50), sedative and m-cholinomimetic effects; type: in vivo; conditions: for selectivity ratio / TD50: in vivo; for selectivity ratio: read-out: Verhältnis TD50 zu ED50
From the text: Von Interesse ist der Einfluß der erfindungsgemäßen Verbindungen auf das ZNS und das Verhalten der Tiere.

[7] = target: T1, Acetylcholinesterase menschlicher Erythrozyten (Homo sapiens, UniProt P22303); experiment: Acetylcholinesterase inhibition, spectrophotometric; type: biochemical; conditions: Acetylcholinesteraseinhibierung bei menschlichen Erythrozyten IK, (Mol), human erythrocyte enzyme
T1 construct: Acetylcholin-esteraseinhi-bierung bei menschlichen Erythrozyten; from tissue; host or cells: human erythrocytes
From the text: Untersucht wurden die Wirkmechanismen der erfindungsgemäßen Verbindungen: • 1. Die Wirkung auf Acetylcholinesterase menschlicher Erythrozyten auf spektrofotometrischem Wege. • 2.

[8] = mouse, in vivo, ip, read-out: LD50
[9] = Uterus der Ratte (as head prints), Konzentration 1.10^-5 Mol, ditto mark -"- repeats unverändert, read-out: Acetylcholin 1.10^-6 (Mol): Amplidude, % bezogen auf d. Kontrolle
[10] = ED50 = dose blocking the effect of Skopolamin in 50 % of the animals (passive avoidance, mice)
[11] = toxic dose causing tremor in 50 % of the animals
[12] = Uterus der Ratte, read-out: Serotonin 1.10^-6 (Mol): Amplitude, % bezogen auf die Kontrolle

T1 sequence (P22303 other isoform, or with tags, fused parts or gaps): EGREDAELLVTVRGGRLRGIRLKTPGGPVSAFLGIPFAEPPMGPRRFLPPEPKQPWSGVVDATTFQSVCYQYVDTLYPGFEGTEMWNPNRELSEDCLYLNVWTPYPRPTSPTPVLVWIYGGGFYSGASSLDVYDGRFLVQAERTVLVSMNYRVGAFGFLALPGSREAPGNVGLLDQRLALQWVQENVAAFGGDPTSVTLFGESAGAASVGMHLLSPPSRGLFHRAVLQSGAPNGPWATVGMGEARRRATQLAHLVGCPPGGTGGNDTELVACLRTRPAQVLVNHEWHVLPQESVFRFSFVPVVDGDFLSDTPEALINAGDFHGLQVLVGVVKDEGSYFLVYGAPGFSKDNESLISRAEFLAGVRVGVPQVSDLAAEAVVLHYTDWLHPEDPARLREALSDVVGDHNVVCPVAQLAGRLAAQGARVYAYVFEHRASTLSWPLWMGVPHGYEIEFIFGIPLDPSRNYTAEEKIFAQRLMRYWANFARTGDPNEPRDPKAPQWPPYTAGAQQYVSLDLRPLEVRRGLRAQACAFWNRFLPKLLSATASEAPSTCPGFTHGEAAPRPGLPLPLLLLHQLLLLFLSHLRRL

SMILES | LD50 [1, 8] | IC50 [2] | activity at 10 µM (Samenleiter der Ratte) | activity at 10 µM (Uterus der Ratte; [9]) | activity at 10 µM (Uterus der Ratte; Uterus der Ratte, Konzentration 1.10^-5 Mol, read-out: Serotonin 1.10^-6 (Mol): Amplitude, % bezogen auf die Kontrolle) | Acetylcholin 1.10^-6 (Mol): Dauer, Min. (Uterus der Ratte; Uterus der Ratte (as head prints), Konzentration 1.10^-5 Mol) | Serotonin 1.10^-6 (Mol): Dauer, Min. (Uterus der Ratte; Uterus der Ratte, Konzentration 1.10^-5 Mol) | IC50 [3] | Einfluß auf das Gedächtnis: Zahl der Tiere in %, bei denen die Skopolaminwirkung aufgehoben wurde [4] | Stimulierung der Nerven-Muskelübertragung, in % der Amplitude: EPP [5] | Stimulierung der Nerven-Muskelübertragung, in % der Amplitude: minEPP [5] | selectivity ratio [6, 10] | TD50 [6, 11] | Ki [7] | activity at 100 µM (Samenleiter der Ratte) | activity at 100 µM (Uterus der Ratte; [12]) | antiamnestische Wirkung [4] | LD50 [1] | Verhältnis TD50 zu ED50 [6, 10] | TD50 (Tremor) [6, 11]
Nc1c2c(nc3c1CCC3)CCCCC2 [Verbindung 38] | 49 mg/kg | 580 µM | 145% | 125% | 180% | 20±0.6 Min. | 25±0.8 Min. | 4500 µM | 70% | 28% | 52% | 7.6 | 17 mg/kg | 0.48 µM |  |  |  |  |  | 
Nc1c2c(nc3c1CCC3)CCC2 [Verbindung 36, 8-Amino-1,2,3,5,6,7-hexahydro-1-cyclopenta[b]pyrindin-hydrochlorid] | 36 mg/kg | 420 µM | 160% | 140% |  |  |  | 5200 µM | 65% | 20% | 60% | 7.5 | 15 mg/kg | 0.11 µM |  |  |  |  |  | 
CCc1c(C)nc2c(c1N)CCC2 [Verbindung 21, 2-Methyl-3-ethyl-4-amino-6,7-dihydro-5H-1-pyrindinhydrat] | 30 mg/kg | 3500 µM |  |  |  |  |  | 3200 µM | 68% | 25% | 58% | 3.8 | 10 mg/kg | 7 µM | 115% | 118% | antiamnestische Wirkung, welche die von Amyridin etwas übertraf |  |  | 
CCCc1c(C)nc2c(c1N)CCC2 [Verbindung 24] | 30 mg/kg | 4000 µM |  |  |  |  |  | 4200 µM | 68% | 25% | 54% | 3 | 10 mg/kg | 7.5 µM | 120% | 119% |  |  |  | 
CNc1c(C)c(C)nc2c1CCC2 [Verbindung 19, 2,3-Dimethy)-4-methy)amino-6,7-dihydro-5H-1-pyrindinhydrat] | 16 mg/kg | 1800 µM |  |  |  |  |  | 2500 µM | 70% | 28% | 56% | 4 | 12 mg/kg | 6.7 µM | 115% | 120% | antiamnestische Wirkung, welche die von Amyridin etwas übertraf |  |  | 
Cc1nc2c(c(N)c1-c1ccccc1)CCC2 [Verbindung 33] |  | 6500 µM |  |  |  |  |  | 5500 µM | 55% | 20% | 42% |  |  | 48 µM | 128% | 140% |  | 25 mg/kg | 2,4 | 15 mg/kg
CCNc1c(C)c(C)nc2c1CCC2 [Verbindung 20, 2,3-Dimethyl-4-ethylamino-6,7-dihydro-5H-1-pyrindin] | 18 mg/kg | 2200 µM |  |  |  |  |  | 2800 µM | 65% | 30% | 58% | 3.8 | 10 mg/kg | 7 µM | 120% | 125% | antiamnestische Wirkung, welche die von Amyridin etwas übertraf |  |  | 
CCc1nc2c(c(N)c1C)CCC2 [Verbindung 27, 2-Ethyl-3-methyl-4-amino-6,7-dihydro-5H-1-pyrindinhydrat] | 30 mg/kg | 150 µM |  |  |  |  |  | 380 µM | 60% | 23% | 45% | 10 | 19 mg/kg | 3.8 µM | 126% | 125% | antiamnestische Wirkung, welche die von Amyridin etwas übertraf |  |  | 
